Here are results for 29 molecules from patent publication US20250074901A1, “NOVEL HETEROARYL COMPOUNDS” (ICAGEN, LLC, priority 2021, published 2025).

This assay addresses T1, Kv7.2 (Homo sapiens, UniProt O43526).
T1 construct: expressed in transfected cells
Description: Activation of Kv7.2 (in vitro assay, concentration response curve). In kind it is cell-based. The note with it: for Emax: Kv7.2 activation max %; for EC50: activation of Kv7.2. The procedure: The term “EC50” in this application is defined as: the agonistic effect of a compound can be determined by testing the compound in an in vitro assay as described herein, whereby the effect of the compound is measured across a range of compound concentrations. The resulting data is plotted as a concentration response curve, which typically follows a sigmoidal function, whereby the concentration of the compound is plotted on the x axis and the response (agonistic effect) is plotted on the y axis. The term “EC50” is the “half maximal effective concentration” and denotes the concentration of a particular compound required to obtain 50% of the maximum response (Emax) which is observed for that compound in the given in vitro assay.

Turning to `O=C(NCc1ccnc(-n2cccn2)c1)N[C@@H]1C[C@H]2CC[C@@H]1C2` (racemic) [Example 7, 1-[(2-pyrazol-1-ylpyridin-4-yl)methyl]-3-[rac-(1R,2R,4S)-2-bicyclo[2.2.1]heptanyl]urea], the Emax (usually the size of the effect at its maximum, as opposed to the concentration needed) was 101% and the EC50 (in general, the concentration needed to bring the measured effect to its halfway point) came out at 0.59 µM.

Regarding `O=C(NCc1ccnc(OC(F)F)c1)N[C@@H]1C[C@H]2CC[C@@H]1C2` (racemic) [Example 12, 1-[[2-(difluoromethoxy)pyridin-4-yl]methyl]-3-[rac-(1R,2R,4S)-2-bicyclo[2.2.1]heptanyl]urea], the Emax came to 81% and the response was half-maximal at 0.09 µM (EC50).

With `COc1cc(CNC(=O)N[C@@H]2C[C@H]3CC[C@@H]2C3)ccn1` (racemic) [Example 14, 1-[(2-methoxypyridin-4-yl)methyl]-3-[rac-(1R,2R,4S)-2-bicyclo[2.2.1]heptanyl]urea], the maximal response (Emax) was 86% and the EC50 is 1.84 µM.

`O=C(NCc1ccnc(-n2cnc(C(F)(F)F)c2)c1)N[C@H]1C[C@@H]2CC[C@H]1C2` (racemic) [Example 26, 1-[rac-(1R,2R,4S)-2-bicyclo[2.2.1]heptanyl]-3-[[2-[4-(trifluoromethyl)imidazol-1-yl]pyridin-4-yl]methyl]urea]: the Emax came out at 65% and a half-maximal response (EC50) required 0.38 µM.

Take `O=C(NCc1ccnc(Br)c1)N[C@H]1C[C@@H]2CC[C@H]1C2` (racemic) [Example 27, 1-[(2-bromopyridin-4-yl)methyl]-3-[rac-(1R,2R,4S)-2-bicyclo[2.2.1]heptanyl]urea]: the Emax was determined as 76% and the EC50 is 2.69 µM.

The molecule `O=C(NCc1ccnc(-c2cnco2)c1)N[C@H]1C[C@@H]2CC[C@H]1C2` (racemic) [Example 28, 1-[[2-(1,3-oxazol-5-yl)pyridin-4-yl]methyl]-3-[rac-(1R,2R,4S)-2-bicyclo[2.2.1]heptanyl]urea] gave an Emax of 76% and an EC50 of 8.28 µM.

Consider `CC(F)(F)c1cc(CNC(=O)N[C@H]2C[C@@H]3CC[C@H]2C3)ccn1` (racemic) [Example 33, 1-[[2-(1,1-difluoroethyl)pyridin-4-yl]methyl]-3-[rac-(1R,2R,4S)-2-bicyclo[2.2.1]heptanyl]urea], for which the Emax is 80% and the EC50 came to 0.26 µM.

With `N#Cc1cc(CNC(=O)N[C@H]2C[C@@H]3CC[C@H]2C3)ccn1` (racemic) [Example 34, 1-[(2-cyanopyridin-4-yl)methyl]-3-[rac-(1R,2R,4S)-2-bicyclo[2.2.1]heptanyl]urea], the Emax was 49% and the concentration for a half-maximal effect (EC50) is 2.77 µM.

In turn, `O=C(NCc1ccnc(C(F)F)c1)N[C@H]1C[C@@H]2CC[C@H]1C2` (racemic) [Example 35, 1-[[2-(difluoromethyl)pyridin-4-yl]methyl]-3-[rac-(1R,2R,4S)-2-bicyclo[2.2.1]heptanyl]urea] gave an Emax of 67% and an EC50 of 1.14 µM.

Regarding `O=C(NCc1ccnc(C(F)(F)F)c1)N[C@H]1C[C@@H]2CC[C@H]1C2` (racemic) [Example 36, 1-[rac-(1R,2R,4S)-2-bicyclo[2.2.1]heptanyl]-3-[[2-(trifluoromethyl)pyridin-4-yl]methyl]urea], the Emax came out at 64% and the midpoint of the response, the EC50, lay at 0.54 µM.

In turn, `O=C(NCc1ccnc(OC(F)F)c1)N[C@@H]1CC[C@H](C(F)(F)F)C1` (racemic) [Example 59, 1-[[2-(difluoromethoxy)pyridin-4-yl]methyl]-3-[rac-(1R,3S)-3-(trifluoromethyl)cyclopentyl]urea] came in with an Emax of 65% and an EC50 of 0.11 µM.

The molecule `O=C(NCc1ccnc(OC(F)F)c1)NC1CCC2C1C2(F)F` (racemic) [Example 73, 1-[[2-(difluoromethoxy)pyridin-4-yl]methyl]-3-[rac-(1R,5R)-6,6-difluoro-2-bicyclo[3.1.0]hexanyl]urea] registered an Emax of 49% and an EC50 of 0.25 µM.

`O=C(NCc1ccnc(OC(F)F)c1)NC1CC2C(C1)C2(F)F` (racemic) [Example 74, 1-[[2-(difluoromethoxy)pyridin-4-yl]methyl]-3-[rac-(1R,5S)-6,6-difluoro-3-bicyclo[3.1.0]hexanyl]urea]: the Emax came out at 58% and it took 0.17 µM to reach a half-maximal effect (EC50).

Take `O=C(NCc1ccnc(OCC(F)(F)F)c1)N[C@H]1CC[C@@H](C(F)(F)F)C1` (racemic) [Example 79, 1-[rac-(1R,3S)-3-(trifluoromethyl)cyclopentyl]-3-[[2-(2,2,2-trifluoroethoxy)pyridin-4-yl]methyl]urea]: the Emax is 55% and the EC50 was found to be 0.1 µM.

`CC1(C)C[C@H](NC(=O)NCc2ccnc(OC(F)F)c2)[C@@H]1O` (racemic) [Example 81, 1-[[2-(difluoromethoxy)pyridin-4-yl]methyl]-3-[rac-(1R,2S)-2-hydroxy-3,3-dimethylcyclobutyl]urea] returned an Emax of 73% and an EC50 of 1.36 µM.

Take `CC1(C)C[C@H](NC(=O)NCc2ccnc(-n3cnc(C(F)(F)F)c3)c2)[C@@H]1O` (racemic) [Example 99, 1-[rac-(1R,2S)-2-hydroxy-3,3-dimethylcyclobutyl]-3-[[2-[4-(trifluoromethyl)imidazol-1-yl]pyridin-4-yl]methyl]urea]: the Emax was found to be 44% and the EC50 was 6.51 µM.

`CC1(C)CC[C@H](O)[C@@H](NC(=O)NCc2ccnc(OC(F)F)c2)C1` (racemic) [Example 101, 1-[[2-(difluoromethoxy)pyridin-4-yl]methyl]-3-[rac-(1R,2R)-2-hydroxy-5,5-dimethylcyclohexyl]urea] came in with an Emax of 72% and an EC50 of 1.2 µM.

The molecule `O=C(NCc1ccnc(OC(F)F)c1)N[C@@H]1C[C@H]2CC[C@@H]1O2` (racemic) [Example 102, 1-[[2-(difluoromethoxy)pyridin-4-yl]methyl]-3-[rac-(1R,2S,4S)-7-oxabicyclo[2.2.1]heptan-2-yl]urea] came in with an Emax of 71% and an EC50 of 5.86 µM.

Take `O=C(NCc1ccnc(OC(F)F)c1)N[C@H]1C[C@@H]2C[C@H]1[C@H](O)C2` (racemic) [Example 107, 1-[[2-(difluoromethoxy)pyridin-4-yl]methyl]-3-[rac-(1R,2S,4S,6R)-6-hydroxy-2-bicyclo[2.2.1]heptanyl]urea]: the Emax was 95% and the midpoint of the response, the EC50, lay at 1.7 µM.

Regarding `O=C(NCc1ccnc(OC(F)F)c1)N[C@H]1[C@@H](O)[C@H]2CCC[C@H]21` (racemic) [Example 111, 1-[[2-(difluoromethoxy)pyridin-4-yl]methyl]-3-[rac-(1R,5S,6S,7R)-7-hydroxy-6-bicyclo[3.2.0]heptanyl]urea], the Emax was found to be 63% and the EC50 amounted to 2.78 µM.

In turn, `O=C(NCc1ccnc(OC(F)F)c1)N[C@H]1C[C@H]2CCC[C@@]2(CO)C1` (racemic) [Example 112, 1-[[2-(difluoromethoxy)pyridin-4-yl]methyl]-3-[rac-(2R,3aS,6aS)-6a-(hydroxymethyl)-2,3,3a,4,5,6-hexahydro-1H-pentalen-2-yl]urea] gave an Emax of 49% and an EC50 of 4.91 µM.

Molecule `O=C(NCc1ccnc(OC(F)F)c1)N[C@H]1CCC[C@H]1O` (racemic) [Example 118, 1-[[2-(difluoromethoxy)pyridin-4-yl]methyl]-3-[rac-(1R,2S)-2-hydroxycyclopentyl]urea] gave an Emax of 63% and an EC50 of 7.87 µM.

For `O=C(NCc1ccnc(OC(F)F)c1)NC[C@@]12CCC[C@@H]1CCO2` (racemic) [Example 120, 1-[[2-(difluoromethoxy)pyridin-4-yl]methyl]-3-[[rac-(3aR,6aR)-2,3,3a,4,5,6-hexahydrocyclopenta[b]furan-6a-yl]methyl]urea], the Emax is 53% and the EC50 came to 3.45 µM.

`O=C(NCc1ccnc(OC(F)F)c1)N[C@@H]1CC[C@@H]1F` (racemic) [Example 123, 1-[[2-(difluoromethoxy)pyridin-4-yl]methyl]-3-[rac-(1R,2S)-2-fluorocyclobutyl]urea] had an Emax of 40% and an EC50 of 4.16 µM.

`O=C(NCc1ccnc(OC(F)F)c1)N[C@@H]1CCC[C@H](C(F)(F)F)C1` (racemic) [Example 138, 1-[[2-(difluoromethoxy)pyridin-4-yl]methyl]-3-[rac-(1R,3S)-3-(trifluoromethyl)cyclohexyl]urea] showed an Emax of 40% and an EC50 of 0.1 µM.

Take `O=C1CC2CCC(C1)C2NC(=O)NCc1ccnc(OC(F)F)c1` (racemic) [Example 139, 1-[[2-(difluoromethoxy)pyridin-4-yl]methyl]-3-[rac-(1R,5S)-3-oxo-8-bicyclo[3.2.1]octanyl]urea]: the maximal response (Emax) is 61% and it took 5.25 µM to reach a half-maximal effect (EC50).

The molecule `C[C@]1(O)CCCC[C@@H]1NC(=O)NCc1ccnc(OC(F)F)c1` (racemic) [Example 148, 1-[[2-(difluoromethoxy)pyridin-4-yl]methyl]-3-[rac-(1R,2R)-2-hydroxy-2-methylcyclohexyl]urea] registered an Emax of 64% and an EC50 of 5.07 µM.

For `O=C(NCc1ccnc(OC(F)F)c1)N[C@@H]1CCC(F)(F)C[C@H]1O` (racemic) [Example 154, 1-[[2-(difluoromethoxy)pyridin-4-yl]methyl]-3-[rac-(1R,2R)-4,4-difluoro-2-hydroxycyclohexyl]urea], the Emax worked out at 60% and the EC50 was found to be 2.13 µM.

As to `O=C(NCc1ccnc(OC(F)F)c1)NC1C[C@H]2C[C@@H]1CC2(F)F` (mixture of isomers) [Example 165, 1-[[2-(difluoromethoxy)pyridin-4-yl]methyl]-3-[rac-(1R,4R)-5,5-difluoro-2-bicyclo[2.2.1]heptanyl]urea], the maximum response (Emax) was 94% and the midpoint of the response, the EC50, lay at 0.25 µM.
